Results as given in patent publication US5658885A, “Amidino and guanidino substituted boronic acid inhibitors of trypsin-like enzymes” (The DuPont Merck Pharmaceutical Company, priority 1994, dated 1997).
Structures can show the parent of a compound that is named as a salt.

Target: T1, human thrombin (Homo sapiens, UniProt P00734)
T1 construct: 0.2-0.5 nM human thrombin or human factor Xa; purchased Enzyme Research Laboratories, South Bend, Ind
Test: Inhibition of thrombin hydrolysis of chromogenic substrate S2238 (Ki)
Assay type: biochemical
Conditions: S2238, pH 7.5
Method: The effectiveness of compounds of the present invention as inhibitors of blood coagulation proteases was determined using purified human proteases and synthetic substrates following procedures similar to those described in Kettner et al. (1990).
For these assays, the rate of enzymatic (thrombin, Factor Xa, and Factor VIIa) hydrolysis of chromogenic substrates (S2238 (H-D-Phe-Pip-Arg-pNA), S2222, and S2288, respectively; Kabi Pharmacia, Franklin, Ohio) was measured both in the absence and presence of compounds of the present invention. […] A decrease in the rate of absorbance change at 405 nm in the presence of inhibitor is indicative of enzyme inhibition. The results of this assay are expressed as inhibitory constant, Ki.
Thrombin and Xa determinations were made in 0.10M sodium phosphate buffer, pH 7.5, containing 0.20M NaCl, and 0.5% PEG 8000. VIIa determinations were made in 0.05M tris buffer, pH 7.6, containing 0.10M NaCl, 4 mM CaCl2, and 0.1% bovine serum albumin.
Reactions were allowed to go for 30 minutes and the velocities (rate of absorbance change vs time) were measured in the time frame of 25-30 minutes. The following relationship was used to calculate Ki values. [formula] where: vo is the velocity of the control in the absence of inhibitor;
vs is the velocity in the presence of inhibitor;
I is the concentration of inhibitor;
Ki is the dissociation constant of the enzyme: inhibitor complex;
S is the concentration of substrate;
Km is the Michaelis constant.

Ki [nM] | Compound
< 500 | CC(=O)NCC(=O)N[C@H](Cc1ccccc1)C(=O)N1CCC[C@H]1C(=O)NC(CCCNS(C)(=O)=O)B1OC2CC3CC(C3(C)C)C2(C)O1 (stereo partly shown) [Example 118, Ac--Gly--(D)Phe--Pro--BoroOrn(N-Methanesulfonyl)-C10 H16]
> 500000 | Hydrocinnamoyl-Pro--boroIrg(CH2 CH=CH2)--OH.HBr [Example 49]
< 50000 | Ac--(D)--Phe--Pro--boroGly[(CH2)3 --OCH3 ]--C10 H16 [Example 137]
< 500 | CC1(C)C2CC3OB(C(Cc4cccc(C#N)c4)NC(=O)[C@@H]4CCCN4C(=O)/C=C/c4cccnc4)OC3(C)C1C2 (stereo in doubt) [Example 42, trans-3-(3-pyridyl)acryl-Pro--boroPhe(m-CN)--C10 H16]
< 500 | COCCCC(NC(=O)[C@@H]1CCCN1C(=O)[C@@H](Cc1ccccc1)NC(C)C)B1OC2CC3CC(C3(C)C)C2(C)O1 (stereo partly shown) [Example 143, (CH3)2 CH--(D)--Phe--Pro--boroGly[(CH2)3 --OCH3]--C10 H16]
< 500 | N#Cc1cccc(CC(NC(=O)C2CCCN2C(=O)C(Cc2ccccc2)NC(=O)CCC(=O)O)B(O)O)c1 (stereo not shown) [Example 44, Succinyl-(D)Phe--Pro--boroPhe(m-CN)--OH]
< 500 | CC(C)(C)OC(=O)N[C@H](Cc1ccccc1)C(=O)N1CCCC1C(=O)NC(CCCNS(C)(=O)=O)B1OC2CC3CC(C3(C)C)C2(C)O1 (stereo partly shown) [Example 113, Boc--(D)Phe--Pro--boroOrn(N-Methanesulfonyl)--C10 H16]
< 500 | CC1(C)C2CC3OB(C(CCCON)NC(=O)C4CCCN4C(=O)C(Cc4ccccc4)NS(=O)(=O)Cc4ccccc4)OC3(C)C1C2 (stereo not shown) [Example 103, PhCH2 SO2 --(D)Phe--Pro--boroGly[(CH2)3 --ONH2]--C10 H16.HCl]
< 500 | HOOCCH2 --(D)Phe--Pro--boroOrn(CONH2)--C10 H16.HCl [Example 111]
< 500 | CN(CC(=O)NC(CCCNC=N)B(O)O)C(=O)C(Cc1ccccc1)NC(=O)OC(C)(C)C (stereo not shown) [Example 70, Boc--(D)Phe--Sar--boroOrn(CH=NH)--OH.HCl]
< 500 | CC1(C)C2CC3OB(C(CCCNS(C)(=O)=O)NC(=O)[C@@H]4CCCN4C(=O)[C@@H](Cc4ccccc4)NS(=O)(=O)Cc4ccccc4)OC3(C)C1C2 (stereo partly shown) [Example 120, PhCH2 SO2 --(D)Phe--Pro--boroOrn(N-Methanesulfonyl)-C10 H16]
< 500 | CC(=O)NC(Cc1ccccc1)C(=O)N1CCCC1C(=O)NC(Cc1ccc(C(=N)N)cc1)B1OC2CC3CC(C3(C)C)C2(C)O1 (stereo not shown) [Example 22, Ac--(D)Phe--Pro--boroPhe(p-C(NH)NH2)--C10 H16.BSA]
< 500 | Boc--(D)Phe--Pro--boroOrn[C(NCN)SCH3 ]--C10 H16 [Example 107]
< 500 | CCCS(=O)(=O)N[C@H](Cc1ccccc1)C(=O)N1CCC[C@H]1C(=O)N[C@@H](CCCNC=N)B(O)O [Example 63, CH3 CH2 CH2 SO2 --(D)Phe--Pro--boroOrn(CH=NH)--OH.HCl]
< 500 | COC(=O)C(Cc1cccc(C#N)c1)NC(=O)C1CCCN1C(=O)C(Cc1ccccc1)NC(=O)OC(C)(C)C [Example 129, Boc--(D)Phe--Pro--(R)Phe(mCN)--OMe]
< 500 | Cbz--(D)Phe--Pro--boroIrg(CH3)--C10 H16.HBr [Example 51]
< 500 | N#Cc1cccc(CC(NC(=O)C2CCCN2C(=O)C(N)Cc2ccccc2)B(O)O)c1 (stereo not shown) [Example 19, H--(D)Phe--Pro--boroPhe(m-CN)--OH.HCl]
< 500 | PhSO2 --(D)Phe--Pro--boroOrn(CH=NH)--OH.HCl [Example 59]

Ki [nM] | Compound
< 500 | CN[C@H](Cc1ccccc1)C(=O)N1CCCC1C(=O)NC(CCCOC)B1OC2CC3CC(C3(C)C)C2(C)O1 (stereo partly shown) [Example 142, N-methyl-(D)--Phe--Pro--boroGly[(CH2)3 --OCH3]--C10 H16]
< 500 | CC1(C)C2CC3OB(C(CCCNC=N)NC(=O)c4ccc(-c5ccccc5)cc4)OC3(C)C1C2 (stereo not shown) [Example 76, 4-(Phenyl)benzoyl-boroOrn(CH=NH)--C10 H16.HCl]
< 50000 | Hydrocinnamoyl-Pro--boroIrg(CH2 CH3)--OH.HBr [Example 53]
< 500 | Hydrocinnamoyl-Pro--boroArg(CH3)--OH.HCl [Example 55]
< 500 | CC(=O)NC(Cc1ccccc1)C(=O)N1CCCC1C(=O)NC(CCCNC(N)=NC#N)B1OC2CC3CC(C3(C)C)C2(C)O1 (stereo not shown) [Example 15, Ac--(D)Phe--Pro--boroArg(CN)--C10 H16.HCl]
< 500 | CC1(C)C2CC3OB(C(CCCNS(C)(=O)=O)NC(=O)C4CCCN4C(=O)[C@@H](Cc4ccccc4)NCC(=O)O)OC3(C)C1C2 (stereo partly shown) [Example 119, HOOCCH2 --(D)Phe--Pro--boroOrn(N-Methanesulfonyl)-C10 H16.HCl]
< 500 | COC(=O)C(Cc1cccc(C#N)c1)NC(=O)C1CCCN1C(=O)C(Cc1ccccc1)NC(=O)OC(C)(C)C [Example 130, Boc--(D)Phe--Pro--(S)Phe(mCN)--OMe]
< 500 | CH3 (CH2)3 SO2 --(D)Phe--Pro--boroArg(CH3)--OH.HCl [Example 65]
< 500 | COCCCC(NC(=O)C1CCCN1C(=O)C(Cc1ccccc1)NC(=O)OC(C)(C)C)B1OC2CC3CC(C3(C)C)C2(C)O1 (stereo not shown) [Example 138, Boc--(D)--Phe--Pro--boroGly[(CH2)3 --OCH3]--C10 H16]
< 500 | CC1(C)C2CC3OB(C(Cc4cccc(C#N)c4)NC(=O)C4CCCN4C(=O)CSc4ccncc4)OC3(C)C1C2 (stereo not shown) [Example 43, (4-Pyridylthio)acetyl-Pro--boroPhe(m-CN)--C10 H16]
< 500 | CC(=O)NC(Cc1ccccc1)C(=O)N1CCCC1C(=O)NC(Cc1cccc(CN)c1)B1OC2CC3CC(C3(C)C)C2(C)O1 (stereo not shown) [Example 13, Ac--(D)Phe--Pro--boroPhe--(m-CH2NH2)--C10 H16.HCl]
< 500 | CNC(=NC#N)NCCCC(NC(=O)C1CCCN1C(=O)C(Cc1ccccc1)NC(=O)OC(C)(C)C)B1OC2CC3CC(C3(C)C)C2(C)O1 (stereo not shown) [Example 105, Boc--(D)Phe--Pro--boroOrn--[C(NCN)NHCH3]--C10 H16]
< 500 | H--(D)Phe--Pro--boroPhe(m-CN)--C10 H16.HCl [Example 18]
< 50000 | CC(C)(C)OC(=O)NC(Cc1ccccc1)C(=O)N1CCCC1C(=O)NC(CCCC#N)B1OC2CC3CC(C3(C)C)C2(C)O1 (stereo not shown) [Example 122, Boc--(D)Phe--Pro--boroGly[(CH2)3 --CN]--C10 H16]
< 500 | CC1(C)C2CC3OB(C(Cc4cccc(C#N)c4)NC(=O)C4CCCN4C(=O)CCc4cccnc4)OC3(C)C1C2 (stereo not shown) [Example 45, 3-Pyridylpropionyl-Pro--boroPhe(m-CN)--C10 H16]
< 500 | H--(D)Thiazolylalanine-Pro--boroPhe(m-CN)--C10 H16.HCl [Example 29]
< 500 | CC1(C)C2CC3OB(C(Cc4cccc(C#N)c4)NC(=O)C4CCN4C(=O)C(N)Cc4ccccc4)OC3(C)C1C2 (stereo not shown) [Example 47, H--(D)Phe--Aze--boroPhe(m-CN)--C10 H16.HCl]
< 500 | CC(C)(C)OC(=O)NC(Cc1ccccc1)C(=O)N1CCC1C(=O)NC(Cc1cccc(C#N)c1)B1OC2CC3CC(C3(C)C)C2(C)O1 (stereo not shown) [Example 46, Boc--(D)Phe--Aze--boroPhe(m-CN)--C10 H16]

Compound | Ki [nM]
CC(=O)N[C@H](Cc1ccccc1)C(=O)N1CCC[C@H]1C(=O)NC(CCCCC#N)B1OC2CC3CC(C3(C)C)C2(C)O1 (stereo partly shown) [Example 1, Ac--(D)Phe--Pro--NH--CH[(CH2)4 CN]BO2 C10 H16] | < 50000
